From US6921531B2, “Administering bifunctional molecules containing a drug moiety and presenter protein ligand for therapy” (The Board of Trustees of the Leland Stanford Junior …, priority 1998, dated 2005)
“Also recorded” adds a separate entry of the source.

Assays:
Fyn SH2 domain = target: T1, Fyn SH2 domain (Homo sapiens, UniProt P06241); test: Competition binding assay of radioactive Fyn SH2 domain to pYEEI beads; conditions: for Effect of FKBP12 on affinity for the Fyn SH2 domain: 1.0 µM ligand plus FKBP12 (0.25-4.0 µM or 2.0 µM)
T1 construct: The Fyn, Lck and PLC SH2 domains were expressed in bacteria as GST fusion proteins; GST (cleaved yes); made in house; host or cells: bacteria
Text: The pYEEI peptide was coupled to Affi-Gel 10 beads (Biorad) via its amino-group. The Fyn, Lck and PLC SH2 domains were expressed in bacteria as GST fusion proteins. The linker between the GST protein and the SH2 domain contained a thrombin cleavage site and a protein kinase A (PKA) phosphorylation site. The fusion protein on glutathione beads was radioactively labeled at the PKA phosphorylation site using PKA (Sigma). After extensive washing of the beads, the radioactive SH2 domain was released by cleavage with thrombin (Sigma). In a typical binding assay, 7.5 L of a 1:1 peptide bead slurry were incubated with the radioactive SH2 domain (200 nM) for 2 hours in 100 L of binding buffer (20 mM Tris pH7.2; 150 mM NaCl). In order to separate the radioactive protein bound to the beads, the binding reaction was transfered into a PCR tube (USA Scientific Plastic), whose bottom had been punctured with a 26gauge needle. The PCR tube was placed in a 0.5 mL Eppendorf tube which in turn was placed in a regular 1.5 mL Eppendorf tube. The tubes were spun for 1 second at maximal speed in an Eppendorf centrifuge resulting in the separation of the beads remaining in the PCR tube and the supernatant, which was collected in the 0.5 ml Eppendorf tube. The beads were resuspended in […] PBS and the radioactivity was counted in a liquid scintillation counter after addition of 3 ml scintillation fluid. The radioactivity remaining in the 100 L supernatant was counted in the same way. It was determined that under the conditions described 65% Fyn, 25% PLC and 15%Lck SH2 domain were bound to the beads. By increasing the amount of beads, up to 80% Fyn, 40% PLC and 25% Lck could be bound. These amounts reflect the active fraction of SH2 domains in the different protein preparations.
In order to determine the relative affinity of the SH2 domains for FKpYEEI or SLFpYEEI alone and FKpYEEI or SLFpYEEI bound to FKBP12 and FKBP52, the following competition assay was used. Radioactive SH2 domains were incubated with pYEEI peptide beads and FKpYEEI or SLFpYEEI in the presence or absence of the respective FKBP proteins. FKpYEEI and FKpYEEI/FKBP as well as SLFpYEEI and SLFpYEEI/FKBP compete for binding of the SH2 domains with the peptide beads. The higher the affinity of the FKpYEEI or SLFpYEEI ligand in the supernatant, the less SH2 domain is bound to the peptide beads (FIG. 3).
Using the competition binding assay described above, FKpYEEI was added to peptide beads and the Fyn SH2 domain in the presence of increasing concentrations of FKBP52 (FIG. 4). In this assay, in 100 L binding reactions, radioactively labeled Fyn SH2 domain (200 nM) was incubated with 7.5 L of a 1:1 pYEEI bead slurry. No FKpYEEI, 1.0 M FKpYEEI or 1.0 M FKpYEEI plus increasing concentrations of FKBP52 (0.25-4.0 M) were added. The binding reactions were rotated at room temperature for 2 hours. The supernatant was separated from the beads by spinning the binding reactions in punctured PCR tubes for 1 sec in an Eppendorf centrifuge at maximal speed. The beads were resuspended in 100 1 PBS and the radioactivity bound to the beads was counted in a liquid scintillation vial for 30 sec. The radioactivity bound to the beads in the presence of only the Fyn SH2 domain was plotted as 100% of maximal Fyn SH2 domain binding to pYEEI beads. The radioactivity bound in the presence of FKpYEEI and FKBP52 was calculated as the percentage of maximal Fyn SH2 domain binding. Every binding reaction was done in triplicate. The data points reflect the average of the three binding reactions. The error bars indicate the standard error.
In this assay, in 100 L binding reactions, radioactively labeled Fyn SH2 domain (200 nM) was incubated with 7.5 L of a 1:1 pYEEI bead slurry. […] The binding reactions were rotated at room temperature for 2 hours, centrifuged and analysed as described above. […]

Lck SH2 domain = target: T2, Lck SH2 domain (Homo sapiens, UniProt P06239); test: Competition binding assay of radioactive Lck SH2 domain to pYEEI beads; conditions: 1.0 μM ligand plus FKBP12 2.0 μM
T2 construct: The Fyn, Lck and PLC SH2 domains were expressed in bacteria as GST fusion proteins; GST (cleaved yes); made in house; host or cells: bacteria
Text: The pYEEI peptide was coupled to Affi-Gel 10 beads (Biorad) via its amino-group. The Fyn, Lck and PLC SH2 domains were expressed in bacteria as GST fusion proteins. The linker between the GST protein and the SH2 domain contained a thrombin cleavage site and a protein kinase A (PKA) phosphorylation site. The fusion protein on glutathione beads was radioactively labeled at the PKA phosphorylation site using PKA (Sigma). After extensive washing of the beads, the radioactive SH2 domain was released by cleavage with thrombin (Sigma). […] The beads were resuspended in […] PBS and the radioactivity was counted in a liquid scintillation counter after addition of 3 ml scintillation fluid. The radioactivity remaining in the 100 L supernatant was counted in the same way. It was determined that under the conditions described 65% Fyn, 25% PLC and 15%Lck SH2 domain were bound to the beads. […]
To test if the presence of FKBP12 affects the affinity of FKpYEEI for other SH2 domains aside from the PLC SH2 domain, FKpYEEI and FKBP12 were added to binding reactions containing the Fyn, Lck or PLC SH2 domains (FIG. 10). […] The binding reactions were rotated at room temperature for 2 hours, centrifuged and analysed as described above. […]

T1 sequence (P06241 149-246 limits assumed): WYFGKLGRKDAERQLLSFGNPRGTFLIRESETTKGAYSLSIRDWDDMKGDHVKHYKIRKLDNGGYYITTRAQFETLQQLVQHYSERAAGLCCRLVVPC
T2 sequence (P06239 127-224 limits assumed): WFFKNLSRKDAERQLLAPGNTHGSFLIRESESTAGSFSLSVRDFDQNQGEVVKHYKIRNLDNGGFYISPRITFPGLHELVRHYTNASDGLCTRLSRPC

| SMILES | Effect of FKBP12 on affinity for the Fyn SH2 domain (Fyn SH2 domain) | Effect of FKBP52 on affinity for the Fyn SH2 domain (Fyn SH2 domain; 1.0 M ligand plus FKBP52 0.25-4.0 M) | Enhancement of affinity in the context of FKBP52 in respect to pYEEI (Fyn SH2 domain; IC50 of FKpYEEI plus FKBP52 vs IC50 of pYEEI) | Factor of affinity enhancement for the Fyn SH2 domain in complex with FKBP52 (Fyn SH2 domain; IC50 with FKBP52 vs without) | Effect of FKBP12 on affinity for the Lck SH2 domain (Lck SH2 domain) | Factor of affinity reduction for the Fyn SH2 domain in complex with FKBP12 (Fyn SH2 domain; IC50 with FKBP12 vs without) |
| --- | --- | --- | --- | --- | --- | --- |
| CC[C@H](C)[C@H](NC(=O)[C@H](CCC(=O)O)NC(=O)[C@H](CCC(=O)O)NC(=O)[C@H](Cc1ccc(OP(=O)(O)O)cc1)NC(=O)OCC[C@@H]1/C=C(\C)C[C@H](C)C[C@H](OC)[C@H]2O[C@@](O)(C(=O)C(=O)N3CCCC[C@H]3C(=O)O[C@H](/C(C)=C/[C@@H]3CC[C@@H](O)[C@H](OC)C3)[C@H](C)[C@@H](O)CC1=O)[C@H](C)C[C@@H]2OC)C(=O)O [FKpYEEI] | does not enhance the binding affinity for the Fyn SH2 domain; also recorded: does not affect the affinity | higher affinity for the Fyn SH2 domain | 4.4 fold | three | does not affect the affinity |  |
| CC[C@H](C)[C@H](NC(=O)[C@H](CCC(=O)O)NC(=O)[C@H](CCC(=O)O)NC(=O)[C@H](Cc1ccc(OP(=O)(O)O)cc1)NC(=O)COc1cccc([C@@H](CCc2ccc(OC)c(OC)c2)OC(=O)[C@@H]2CCCCN2C(=O)C(=O)C(C)(C)CC)c1)C(=O)O [SLFpYEEI] | reduced affinity for the Fyn SH2 domain; also recorded: reduced binding |  |  |  | reduced binding | six |
